Measurements published in paper PMC6348446 (Journal of Medicinal Chemistry, 2018).

Assays:
[1] = tested on: EOL-1 cells; assay: Cell viability/proliferation (cellular ATP, CellTiterGlo) in EOL-1; format: cell-based; settings: Homo sapiens, EOL1; EOL-1, text; read-out: EC50 (cytotoxicity, cell viability)
[2] = target: T1, BRD7 (Homo sapiens, UniProt Q9NPI1); assay: Western blot of BRD7 levels in RI-1 cells after compound treatment; format: cell-based; settings: for BRD7 degradation: 4 h
T1 construct: Western blot analysis of BRD9 and BRD7 levels after treatment of HeLa cells; endogenous in cells; host or cells: HeLa
T1 sequence (Q9NPI1 1-651): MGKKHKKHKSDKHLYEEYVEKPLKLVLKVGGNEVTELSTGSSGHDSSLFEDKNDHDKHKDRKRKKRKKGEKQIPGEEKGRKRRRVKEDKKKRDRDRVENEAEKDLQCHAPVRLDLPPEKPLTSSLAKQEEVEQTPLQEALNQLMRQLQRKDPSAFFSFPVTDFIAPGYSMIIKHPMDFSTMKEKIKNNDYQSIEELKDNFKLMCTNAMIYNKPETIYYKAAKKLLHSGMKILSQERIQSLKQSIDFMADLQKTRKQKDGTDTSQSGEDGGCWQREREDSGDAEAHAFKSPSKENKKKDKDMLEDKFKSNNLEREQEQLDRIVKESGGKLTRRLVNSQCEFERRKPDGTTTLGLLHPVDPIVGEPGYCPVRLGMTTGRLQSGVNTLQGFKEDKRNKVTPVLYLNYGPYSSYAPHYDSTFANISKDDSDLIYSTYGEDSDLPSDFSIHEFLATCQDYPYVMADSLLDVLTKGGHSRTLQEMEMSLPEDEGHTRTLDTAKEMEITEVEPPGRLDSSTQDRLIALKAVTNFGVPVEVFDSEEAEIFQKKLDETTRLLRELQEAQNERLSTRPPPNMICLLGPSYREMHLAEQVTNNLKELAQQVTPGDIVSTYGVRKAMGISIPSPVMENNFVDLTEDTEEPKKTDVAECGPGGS
Procedure: HeLa and Hek293 cells were seeded at either 0.3 × 10^6 or 0.5 × 10^6 cells per well in 6-well plate in 2 mL of medium. At 80% confluency, cells were treated with compounds at the desired concentration, with final DMSO concentration of 0.1% v/v. Cells were incubated at 37 °C and 5% of CO2 for the desired time before harvesting. For protein extraction from adherent cells, cells were washed twice with DPBS (Gibco) and lysed with RIPA buffer (Sigma-Aldrich), supplemented with cOmplete Mini EDTA-free protease inhibitor cocktail (Roche). Insoluble material was removed by centrifugation at 14 000 rpm for 15 min at 4 °C. Supernatant was collected and protein concentration was quantified by Bradford assay (Thermo Scientific no. 23200, mean of two replicates). For RI-1 cells, (1–1.5) × 10^6 cells/mL were seeded in 6-well plate in 2 mL of medium. The day after, cells were treated with compounds at the desired concentration, with final DMSO concentration of 0.1% v/v. Before harvesting, cells were incubated at 37 °C and 5% CO2 for the desired time. Cells were washed twice with DPBS (Gibco) and lysed with RIPA buffer (Sigma-Aldrich), supplemented with cOmplete Mini EDTA-free protease inhibitor cocktail (Roche). Lysates were sonicated (10 s) and centrifuged at 14 000 rpm for 20 min at 4 °C. Supernatant was collected, and protein concentration was quantified by Bradford assay (mean of two replicates). For EOL-1 and A-204 cell line, 20 000 cells were seeded in 300 μL per well in a 24-well plate and incubated at 37 °C overnight. Compounds were added from DMSO stock solution using a digital dispenser D300 (Tecan), normalizing for added DMSO, and cells were incubated at 37 °C for 18 h. Medium was removed, and cells were washed with PBS and lysed in 80 μL of lysis buffer (1% Triton, 350 mM KCl, 10 mM Tris, pH 7,4, phosphatase-protease inhibitor cocktail (Thermo Scientific no. 1861281), 10 mM DTT, Benzonase 0.5 μL/ml (Novagen no. 70746 10KU, 25 U/μL)) for 30 min on ice before insoluble debris was pelleted by centrifugation.
Cells were seeded in 6-well plates with 5 × 10^5 cells per well in 2 mL of complete medium to aim for 80% confluence on the day of treatment. At time zero, ML4924 was added at final concentration of 3 μM with 0.1% v/v of DMSO. DMSO was added to the remaining wells in order to match concentration of vehicle in all wells. […]
Proteins were resolved by SDS–PAGE on NuPage 4–12% Bis-Tris Midi Gel (Invitrogen) and transferred to Amersham Protran 0.45 NC nitrocellulose membrane (GE Healthcare) using wet transfer. […] ImageJ software was used for band quantification, and the last was reported as relative amount as ratio of each protein band relative to the lane’s loading control. […]

decrease of BRD7 level ([2]; 100 nM, 30 min) | BRD7 degradation ([2]; 100 nM) | concentration window of maximal protein degradation of BRD7 ([2]; 2 and 8 h) [µM] | Compound | EC50 [1] [nM]
more than 50% | more than 90% | 0.1 to 1 | COc1cc(-c2cn(C)c(=O)c3cnccc23)cc(OC)c1CN1CCN(CCCCCOc2cc(-c3scnc3C)ccc2CNC(=O)[C@@H]2C[C@@H](O)CN2C(=O)[C@@H](NC(=O)C2(F)CC2)C(C)(C)C)CC1 [Compound 51, (2S,4R)-N-(2-((5-(4-(2,6-Dimethoxy-4-(2-methyl-1-oxo-1,2-dihydro-2,7-naphthyridin-4-yl)benzyl)piperazin-1-yl)pentyl)oxy)-4-(4-methylthiazol-5-yl)benzyl)-1-((S)-2-(1-fluorocyclopropane-1-carboxamido)-3,3-dimethylbutanoyl)-4-hydroxypyrrolidine-2-carboxamide] | 3
 | no degradation |  | COc1cc(-c2cn(C)c(=O)c3cnccc23)cc(OC)c1CN1CCN(CCCCCOc2cc(-c3scnc3C)ccc2CNC(=O)[C@@H]2C[C@H](O)CN2C(=O)[C@@H](NC(=O)C2(F)CC2)C(C)(C)C)CC1 [cisVZ185] | 
